Assay results published in patent US20200155490A1, “IMMUNOMOUDULATORY AGENTS AND METHODS OF USE THEREOF” (priority 2016, published 2020).
Entries after “also recorded” stand apart in the source; their conditions may differ.

What was measured:
[1] = test system: IMQ-induced skin inflammation; assay: Imiquimod (IMQ)-induced psoriasis model; type: in vivo; details: mouse ear skin, 20 mg DI ip daily, IMQ cream 7 days
Experimental: IMQ cream (5%) was applied on mouse ear skin for 7 days and skin pathology was assessed on day 8. Mice received 20 mg DI ip. (DI+IMQ) or vehicle ip (PBS; IMQ) was administered one day prior to IMQ application and every day thereafter until day 7. DI group: received 20 mg DI as above but no IMQ; naïve mice received vehicle as above but no IMQ.

[2] = test system: anti-CD3-induced inflammation; assay: Anti-CD3-induced inflammation in mice (serum IL-17); type: in vivo; details: 4 mg or 20 mg DI ip, 48 h after anti-CD3, ELISA
Experimental: FIG. 26A is a plot showing DI-treatment diminished in vivo systemic IL-17 production. Circulating serum IL-17 levels were determined by ELISA 48 h after anti-CD3-induced inflammation in mice treated or not with the indicated doses of DI. Briefly, mice were received intraperitoneal (ip) injections of 4 mg (n=10) or 20 mg (n=5) DI or vehicle (PBS; shown as 0; n=10) 3 h prior (−3 h) to an anti-CD3 injection (given at 0 h ip) and every 20 h thereafter until mice were analyzed at 48 h.

[3] = test system: BMDM infected with S. typhimurium; assay: In vitro infection of BMDM with Salmonella typhimurium; type: cell-based, mouse
[4] = test system: bone-marrow derived macrophages; assay: Cell viability of bone-marrow derived macrophages; type: cell-based, mouse
Experimental: Live cells were determined via flow cytometry using a live/dead cell fluorescent dye. Shown are representative data from three independent experiments.
Cells were incubated with FcγR-blocking anti-CD16/32 (clone 93, Biolegend) before staining with antibodies to F4/80 (clone BM8, eBioscience) and CD11b (clone M1/70; BD Pharmingen) together with LIVE/DEAD dye (Invitrogen). Intracellular iNOS was detected with mouse anti-NOS2 (clone C-11, Santa Cruz Biotechnology) followed by incubation with fluorochrome-conjugated anti-mouse IgG (Clone A85-1, BD Pharmingen) using the BD cytofix/cytoperm Kit (BD Biosciences) according to manufacturer's instructions. Cells were acquired on a Canto II flow cytometer (BD Biosciences) and data were analyzed using FlowJo v.9.5.2 software (Tree Star).

unstimulated BMDM = assay: Extracellular flux analysis (Seahorse); type: cell-based, mouse; details: 0.25 mM DI 12 h
Experimental: Extracellular acidification rate (ECAR) and Oxygen Consumption rate (OCR) were measured in real time using Seahorse technology as described previously.

[5] = test system: naïve CD4 T cells under Th17 polarizing conditions; assay: Th17 differentiation of naïve CD4 T cells; type: cell-based, C56BL/6 mice; details: for frequency of IL-17-producing cells (Th17 differentiation): Th17 polarizing conditions; for frequency of IL-17-producing cells (Th17 differentiation) / cytotoxic effect (frequency of live CD4 T cells): flow cytometry; for cytotoxic effect (frequency of live CD4 T cells): day 4 after Th17 polarization
Experimental: FIG. 25C is a series of plots showing DI inhibits also the secretion of IL-17 (left) and GM-CSF (right) in the supernatant of CD4 T cells. On day 4 cells were collected, washed, and re-stimulated in equal numbers for each condition with anti-CD3 and anti-CD28. After 24 h supernatants were collected and assayed for IL-17 and GM-CSF by ELISA.

[6] = test system: bone marrow-derived macrophage (BMDM); assay: Activation of BMDM with LPS or LPS+IFN-γ (cytokines, iNOS, HIF-1α); type: cell-based, mouse
Experimental: Cells were incubated with FcγR-blocking anti-CD16/32 (clone 93, Biolegend) before staining with antibodies to F4/80 (clone BM8, eBioscience) and CD11b (clone M1/70; BD Pharmingen) together with LIVE/DEAD dye (Invitrogen). […] Cells were acquired on a Canto II flow cytometer (BD Biosciences) and data were analyzed using FlowJo v.9.5.2 software (Tree Star).
(§1) The concentration of cytokines in culture supernatants was determined using the following kits according to manufacturer's instructions. DuoSet® kits for mouse IL-1β/IL-1F2, TNF-α and IL-6 (all R&D systems); mouse IL-12 ELISA MAX™ Deluxe Set (BioLegend); mouse IL-18 ELISA kit (MBL). Nitric oxide was quantified using Griess Reagent System (Promega).
(§2) BMDM were stimulated as indicated, washed with PBS, lysed in RIPA Lysis Buffer System (Santa Cruz) and boiled in sample loading buffer containing SDS and 100 mM DTT. Proteins were separated by electrophoresis through 4-20% polyacrylamide gradient gels (BioRad). After electrophoretic transfer of proteins onto PVDF membranes, nonspecific binding was blocked by incubation with 5% skim milk and membranes were probed with primary antibodies anti-IL1β (1:1000 dilution; 12507S, CellSignaling), NIrp3 (1:500 dilution; NBP2-12446, Novus), HIF-1α (1:500 dilution; NB100-449, Novus), α-tubulin (1:2000 dilution; 2125S, CellSignaling), ASC (1:1000 dilution; sc-22514-R, Santa Cruz) followed by incubation with secondary antibodies (horseradish peroxidase-conjugated anti-rabbit, 1:10,000 dilution; sc-2030, Santa Cruz) and visualized with Clarity™ western ECL substrate (Biorad).

[7] = test system: bone marrow-derived macrophage (BMDM); assay: RNA-seq transcriptional profiling of LPS-stimulated BMDM; details: for pro-inflammatory transcripts / inflammatory markers (Nos2, II6, II12b etc.): 0.25 mM 12 h pretreatment, LPS 100 ng/ml 4 h
[8] = test system: NLRP3 inflammasome in BMDM; assay: NLRP3 inflammasome activation in BMDM (LPS priming + ATP, nigericin or MSU); type: cell-based, mouse; details: for production of IL-18: then ATP 3 mM 45 min; for protein expression of pro-IL-1β: 0.25 mM 12 h
Experimental: as §1, §2

[9] = test system: neonatal rat cardiac myocytes; assay: Hypoxia modeling in neonatal rat cardiac myocytes; details: NRCMs, hypoxia 24 h, DI pretreatment
Experimental: Neonatal rat cardiac myocytes were isolated and cultured as described. Cells were subjected to hypoxia in an oxygen control cabinet (Coy Laboratories, Grass Lake, Mich.) mounted within an incubator and equipped with oxygen controller and sensor for continuous oxygen level monitoring. […] Cell death was assessed with the Live-Dead Cytotoxicity Viability kit for Mammalian cells (Invitrogen) and ROS generation was monitored by flow cytometric assessment of carboxy-H2DCFDA fluorescence (following incubation in 10 μmol/L for 30 minutes), as previously described.

[10] = test system: AIM2-inflammasome in BMDM; assay: AIM2-inflammasome activation in BMDM (poly dA:dT transfection); type: cell-based, mouse; details: DI 12 h, 5 h
Experimental: as §1

[11] = test system: myocardial ischemia-reperfusion injury; assay: Myocardial ischemia-reperfusion model; type: in vivo, mice; details: for myocardial infarct size: 30 min ischemia, 2 h reperfusion, intravenous infusion during ischemia
Experimental: In vivo ischemia-reperfusion modeling was performed as previously described. 8 to 10 week-old mice were anesthetized and subjected to an open chest procedure of reversible left anterior descending artery ligation for 30 min and subsequent reperfusion for 2 hours. Saline or DI (4 mg/Kg/min) was infused intravenously for 10 min before and throughout the ischemic period. A cardioplegic solution followed by TTC at 37° C. and then Evans Blue (after reocclusion of the LAD) was injected in a retrograde manner through the aorta in situ. The left ventricle was then sectioned into 5 slices and image analysis was performed with Image J (NIH).

[12] = test system: mitochondrial ROS in BMDM; assay: Measurement of mROS (MitoSOX) in BMDM; type: cell-based, mouse; details: 0.25 mM 12 h, LPS 100 ng/ml; MitoSOX flow cytometry
Experimental: Cells were incubated with DI (0.25 mM, 12 h) or vehicle and then loaded with 5 μM of the mitochondrial superoxide indicator MitoSOX (Invitrogen) at 37° C. for 30 min in HBSS supplemented with 0.1% BSA. Cells were then rinsed with warm culture medium and LPS treatment was started 1 h later. Cells were harvested and analyzed on a Canto II flow cytometer (Becton-Dickinson).

[13] = target: T1, succinate dehydrogenase (Sdh) (Mus musculus, UniProt Q8K2B3); assay: Sdh activity assay (Complex II Enzyme Activity Microplate Assay); type: biochemical; details: Sdh purified from BV2 cells or BMDM
T1 construct: Sdh was purified from BV2 cells (a macrophage cell line) or BMDM; endogenous in cells; host or cells: BV2 cells (macrophage cell line) or mouse BMDM; in-well capture with the Abcam Complex II Enzyme Activity Microplate Assay Kit
Experimental: The test compounds were diluted in activity buffer and added to the phospholipid mixture 5 min before adding the activity solution. Absorbance was measured at 600 nm.

[14] = test system: Mycobacterium tuberculosis (Mtb) H37Rv in BMDM; assay: Infection of BMDM with Mycobacterium tuberculosis H37Rv; type: cell-based
Experimental: To address this question, BMMDs were infected with Mycobacterium tuberculosis (Mtb) H37Rv strain (MOI of 1). Three treatment groups were set up: untreated macrophages, macrophages pretreated with interferon, and macrophages pretreated with interferon and then treated with itaconate. The infection was then allowed to proceed for 7 days. On day 7 post infection, serial dilutions of infected BMDM homogenates were plated on 7H11 agar plates and colony forming unit (CFU) determined.

Salmonella infection = Salmonella infection in vivo; details: treated vs untreated mice; i.v. administration
[15] = BMDM pre-treated with 0.25 mM DI 12 h, infected with live S. typhimurium
[16] = day 4 cells re-stimulated with anti-CD3 and anti-CD28, 24 h, ELISA
[17] = BMDM pretreated with DI (12 h; 0.25 mM), LPS 24 h
[18] = 12 h pretreatment, LPS 100 ng/ml 4 h
[19] = Western blot, LPS 4 h, ATP 45 min
[20] = Western blot, DI 0.25 mM 12 h, LPS 4 h, ATP 45 min

T1 sequence (Q8K2B3 43-664): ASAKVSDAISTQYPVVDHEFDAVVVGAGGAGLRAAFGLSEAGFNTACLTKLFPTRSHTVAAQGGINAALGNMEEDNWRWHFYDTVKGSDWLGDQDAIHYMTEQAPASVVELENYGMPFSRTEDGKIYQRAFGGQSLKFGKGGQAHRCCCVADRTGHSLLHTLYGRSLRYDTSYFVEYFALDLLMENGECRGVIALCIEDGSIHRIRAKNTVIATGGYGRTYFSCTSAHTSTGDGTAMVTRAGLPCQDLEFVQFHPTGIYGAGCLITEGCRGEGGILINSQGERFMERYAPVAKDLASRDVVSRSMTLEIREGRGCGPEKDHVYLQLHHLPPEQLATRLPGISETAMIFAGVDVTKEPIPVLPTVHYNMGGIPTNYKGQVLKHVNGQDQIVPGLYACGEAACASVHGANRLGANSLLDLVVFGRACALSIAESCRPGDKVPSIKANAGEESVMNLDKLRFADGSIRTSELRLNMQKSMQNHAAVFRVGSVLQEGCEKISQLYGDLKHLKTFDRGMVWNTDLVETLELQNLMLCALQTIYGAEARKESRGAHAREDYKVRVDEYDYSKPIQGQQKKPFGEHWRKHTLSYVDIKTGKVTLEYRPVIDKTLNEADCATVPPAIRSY
T1 sequence (Q9CQA3 31-282 partner): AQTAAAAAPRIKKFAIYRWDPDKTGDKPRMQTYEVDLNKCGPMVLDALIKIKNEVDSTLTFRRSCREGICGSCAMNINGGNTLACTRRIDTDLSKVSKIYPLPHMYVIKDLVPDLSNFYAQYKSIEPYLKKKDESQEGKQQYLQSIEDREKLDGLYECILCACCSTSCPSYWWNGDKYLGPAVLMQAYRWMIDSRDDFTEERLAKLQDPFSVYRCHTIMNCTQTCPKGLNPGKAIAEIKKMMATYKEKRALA
T1 sequence (Q9CZB0 30-169 partner): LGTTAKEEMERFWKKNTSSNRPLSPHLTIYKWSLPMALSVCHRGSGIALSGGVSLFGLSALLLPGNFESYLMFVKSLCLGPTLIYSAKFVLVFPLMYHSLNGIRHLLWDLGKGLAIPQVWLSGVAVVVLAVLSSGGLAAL
T1 sequence (Q9CXV1 57-159 partner): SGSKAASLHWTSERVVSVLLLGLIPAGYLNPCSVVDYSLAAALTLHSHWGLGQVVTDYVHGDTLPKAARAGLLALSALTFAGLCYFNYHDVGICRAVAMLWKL

C=C(CC(=O)OC)C(=O)OC [DI, dimethyl itaconate]
dermal edema ([1]; H&E day 8): prevents dermal edema | IL-17 associated pathology ([1]; assessed day 8): limits IL-17 associated pathology | in vivo systemic IL-17 production (circulating serum IL-17) [2]: diminished | TNF-α levels [3, 15]: only marginally affected | production of IL-1β [3, 15]: virtually abrogated | production of IL-6 [3, 15]: virtually abrogated | production of nitric oxide (NO) [3, 15]: virtually abrogated | number of intracellular bacteria ([3]; DI-treated vs control BMDM, S. typhimurium): comparable | concentration up to which not toxic [4]: up to 0.5 mM | extracellular acidification rate (ECAR) (unstimulated BMDM): increased | frequency of IL-17-producing cells (Th17 differentiation) [5]: dose-dependently inhibits | cytotoxic effect (frequency of live CD4 T cells) [5]: moderate dose-dependent cytotoxic effect | secretion of GM-CSF [5, 16]: inhibits | secretion of IL-17 [5, 16]: inhibits | IL-12p70 secretion ([6]; BMDM pretreated with DI 12 h, then LPS and IFN-γ 24 h): suppressed | IL-6 secretion [6, 17]: suppressed | TNF-α production [6, 17]: remained unchanged | iNOS protein expression ([6]; BMDM pretreated with DI (12 h; 0.25 mM), then LPS and IFN-γ 24 h, flow cytometry): suppressed | pro-inflammatory transcripts / inflammatory markers (Nos2, II6, II12b etc.) [7]: down-regulation | expression of LPS-regulated genes involved in inflammasome function (II1b, II18, P2rx7, Casp1, Pycard) ([7]; DI 0.25 mM 12 h, LPS 4 h): modulated | production of IL-18 [8, 18]: potently inhibited | production of mature IL-1β ([8]; 12 h pretreatment, LPS 100 ng/ml 4 h, then ATP, nigericin or MSU): potently inhibited | inflammasome-induced cytotoxicity ([8]; DI 0.25 mM 12 h, LPS 4 h, ATP 3 mM 45 min, live/dead dye): only moderately | protein expression of pro-IL-1β [8, 19]: decreased | protein expression of ASC [8, 20]: decreased | protein expression of NLRP3 [8, 20]: decreased | hypoxia-induced cell death [9]: dose-dependent protection | hypoxia-induced increase in ROS generation [9]: attenuated | IL-1β production following AIM-2-dependent inflammasome activation [10]: impaired | area-at-risk ([11]; DI vs saline group): similar | myocardial infarct size ([11]; mice): markedly reduced | reduction in infarct size ([11]; mice, DI 4 mg/Kg/min i.v. 10 min before and throughout ischemia): 42% | LPS-induced upregulation of mROS [12]: impaired

COC(=O)CC(=O)OC [dimethyl malonate, reference compound]
production of IL-18 [8, 18]: inhibited

C=C(CC(=O)O)C(=O)O [itaconate, itaconic acid]
activity of purified Sdh [13]: blocked the activity of Sdh in a dose-dependent manner | frequency of IL-17-producing cells (Th17 differentiation) [5]: dose-dependently inhibits | inhibition of Th17 compared with structurally similar dicarboxylic acids ([5]; all acids at 5 mM, day 3 post polarization): structure specific | cytotoxic effect (frequency of live CD4 T cells) [5]: not cytotoxic | bacterial burden in the cells (CFU) ([14]; BMDM pretreated with interferon, Mtb MOI of 1, day 7 post infection): increased | II1b levels in the supernatants ([14]; Mtb-infected BMDM, data not shown): decreased | pro-inflammatory transcripts / inflammatory markers (Nos2, II6, II12b etc.) [7]: significantly decreased | protein expression of pro-IL-1β [8, 19]: significantly decreased | mortality from Salmonella infection (Salmonella infection): succumb to Salmonella infection faster; also recorded: significantly accelerates mortality | myocardial infarct size ([11]; mice): reduces infarct size | LPS-induced upregulation of mROS [12]: impaired

O=C(O)CC(=O)O [malonate, reference compound]
activity of purified Sdh [13]: blocked the activity of Sdh in a dose-dependent manner | myocardial infarct size ([11]; mice): reduces infarct size
